This is an account of results in ChEMBL document CHEMBL1201862, “PubChem BioAssay data set” (2004).

Among the test systems are SW-620; IGROV-1; OVCAR-3; OVCAR-8; T47D; HL-60; M14; HT-29; K562; MDA-MB-231; HOP-62; NCI-H522; UACC-62; SK-MEL-2; PC-3; DU-145; HOP-92; A498; SF-268; CAKI-1.
Holding throughout (test): NCI anticancer screen, dose series, 48 h

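Grown in 96-well plates, cells were treated for 48 hours with each compound at five concentrations. Insufficient inhibition: endpoint recorded as highest concentration tested. At the GI50, growth is halved.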 Active and inactive are the calls of the source. Rule as the data show it: active = GI50 up to about 1.1 µM and inactive = higher.

Consider `CCCCOc1ccc(NC(=N)Nc2ccc(Cl)cc2)cc1`, for which the GI50 in the assay on SW-620 is 1.03 µM (active); in the assay with IGROV-1, 1.22 µM (inactive); in the assay with OVCAR-3, 10.2 µM (inactive); in the assay on OVCAR-8, 11.2 µM (inactive); in the assay on T47D it was 0.474 µM (active); in the assay with HL-60 it was 6.49 µM (inactive). Besides, the GI50 with M14 is 3.66 µM (inactive); with HT-29 it was 0.243 µM (active); in the assay on K562, 3.01 µM (inactive); in the assay on MDA-MB-231 it was 13.2 µM (inactive); in the assay on HOP-62, 0.235 µM (active); in the assay with NCI-H522 it was 5.86 µM (inactive). The GI50 with UACC-62 is 12.3 µM (inactive); with SK-MEL-2, 2.64 µM (inactive); in the assay on PC-3, 2.06 µM (inactive); in the assay with DU-145, 0.462 µM (active); in the assay on HOP-92 it was 2.58 µM (inactive); in the assay with A498, 0.443 µM (active). The GI50 with SF-268 is 0.92 µM (active).
For the compound `CN(C)c1ccc(/C=N/c2ccc(-c3nc4ccccc4o3)cc2)cc1`, the GI50 with SW-620 is 86.3 µM (inactive); in the assay on IGROV-1, 42.6 µM (inactive); with OVCAR-3, 20.3 µM (inactive); with OVCAR-8, 31.8 µM (inactive); with T47D it was 19.4 µM (inactive); with HL-60 it was 20.8 µM (inactive). Also, the GI50 was 58.5 µM (inactive) with M14; 56.2 µM (inactive) in the assay with HT-29; 36.7 µM (inactive) with K562; 53.2 µM (inactive) in the assay on MDA-MB-231; 35 µM (inactive) in the assay on HOP-62; 42.3 µM (inactive) in the assay with NCI-H522. Besides, the GI50 in the assay with UACC-62 was 38.7 µM (inactive); in the assay on SK-MEL-2 it was 30.6 µM (inactive); in the assay on PC-3 it was 29.7 µM (inactive); in the assay on DU-145, 52.5 µM (inactive); in the assay on HOP-92, 70.3 µM (inactive); in the assay with A498, 53 µM (inactive). Besides, the GI50 in the assay on SF-268 was 79.1 µM (inactive).
As for `COc1cc(/C=C/C(=O)OC2C(O)C3CC(OC(=O)c4cc(OC)c(OC)c(OC)c4)CC2N3C)cc(OC)c1OC` (stereo unspecified), the GI50 in the assay on CAKI-1 was 27 µM (inactive); with SW-620, 16 µM (inactive); in the assay on IGROV-1 it was 0.43 µM (active); in the assay on OVCAR-3, 8.02 µM (inactive); in the assay with OVCAR-8, 12.5 µM (inactive); with T47D, 14.5 µM (inactive). Moreover, the GI50 was > 50 µM (inactive) in the assay with M14; 14.2 µM (inactive) in the assay with HT-29; > 50 µM (inactive) in the assay with K562; 16.1 µM (inactive) in the assay with MDA-MB-231; 26.4 µM (inactive) in the assay on HOP-62; 19.5 µM (inactive) with NCI-H522. Besides, the GI50 was > 50 µM (inactive) with UACC-62; 47.1 µM (inactive) in the assay on SK-MEL-2; 35.6 µM (inactive) in the assay with PC-3; > 50 µM (inactive) in the assay with DU-145; 9.77 µM (inactive) with HOP-92; 8.04 µM (inactive) in the assay on A498. Further, the GI50 in the assay with SF-268 was > 50 µM (inactive).
In the case of `O=S(=O)(O)c1ccc(/N=N\c2c(O)ccc3cc(Br)ccc23)cc1`, the GI50 with CAKI-1, in the assay on SW-620, in the assay on IGROV-1, in the assay with OVCAR-3, in the assay on OVCAR-8 and in the assay on T47D was > 100 µM (inactive) in each case. Also, the GI50 with M14 was > 100 µM (inactive); in the assay with HT-29, > 100 µM (inactive); with K562, > 10 µM (inactive); with MDA-MB-231 it was > 100 µM (inactive); in the assay on HOP-62, > 100 µM (inactive); in the assay with NCI-H522, > 100 µM (inactive). In addition, the GI50 with UACC-62, in the assay on SK-MEL-2, in the assay with PC-3, in the assay on DU-145, in the assay on HOP-92 and with A498 was > 100 µM (inactive) each time. Further, the GI50 in the assay on SF-268 is > 100 µM (inactive).
